≈ marks a conversion by molar mass, not a printed value. Like-named read-outs stand apart in the source and are kept apart here.
Key:
[1] = system: A/Puerto Rico/8/34 (H1N1) (PR8); assay: organism not typed; format: cell-based; settings: MDCK cells, crystal violet staining, 3 days, read-out: IC50 against influenza virus replication (plaque formation), PR8
[2] = physchem; format: physicochemical; settings: Non-lactic acid
[3] = physchem; format: physicochemical; settings: molar ratio compound:acid as listed per salt
[4] = system: influenza virus PR8; settings: mouse, in vivo

Compound | IC50 [1] [nM] | pH VALUE [2] | solubility ([2]; pH 7.8) [µg/mL] | PH VALUE OF THE SOLUTION [3] | solubility ([3]; water, unit printed in b135 only) [µg/mL] | IC50 ([1]; listed as COMPOUND TO BE TESTED OF FORMULA I) [nM] | IC50 ([1]; MDCK, 72 h) [nM] | body weight [4] | IC50 ([1]; phosphate) [nM] | disease symptoms [4]
Peramivir | 17.6 |  |  |  |  |  |  |  |  | 
CCCCS(=O)(=O)N[C@@H]1CCCN([C@@H]2C=C(C(=O)O)C[C@H](NC(=N)N)[C@H]2NC(C)=O)C1 [(3R,4R,5S)-4-acetamido-5-guanidino-3-((3R)-3-n-butylsulfonamidopiperidin)-1-cyclohexene-1-carboxylic acid] |  | 7.8 | 2500 (≈ 5.45 mM) | 7.8 | 2500 | 252 | 250 | slightly decreased |  | 
CCOC(=O)C1=C[C@@H](OC(CC)CC)[C@H](NC(C)=O)[C@@H](N)C1.O=P(O)(O)O [Oseltamivir phosphate, ethyl (3R, 4R, 5S)-4-acetamido-5-amino-3-(1-ethylpropoxy)-1-cyclohexene-1-carboxylate phosphate] |  |  |  |  |  |  | 130 |  | 133 | obvious disease symptoms
